Patent publication US20260022142A1, “MACROCYCLIC IMMUNOMODULATORS” (Bristol-Myers Squibb Company, priority 2022, published 2026)
Bridge positions count the residues as written; N and C are the ends. Square brackets hold non-standard residues; d marks the D form. Peptide text beside a SMILES is read from it. * marks the point of attachment. ξ: configuration not given here. Bip = N[C@@H](Cc1ccc(-c2ccccc2)cc1)C(=O)O; Tyr(3-F) = N[C@@H](Cc1ccc(O)c(F)c1)C(=O)O; Tyr(3-Me) = Cc1cc(C[C@H](N)C(=O)O)ccc1O; Phe(3-Me) = Cc1cccc(C[C@H](N)C(=O)O)c1; Val(3-OH) = CC(C)(O)[C@H](N)C(=O)O; Cha = N[C@@H](CC1CCCCC1)C(=O)O; hSer = N[C@@H](CCO)C(=O)O; Carboxymethyl = O=C(O)C*; Orn = NCCC[C@H](N)C(=O)O; Aun = NCCCCCCCCCCC(=O)O; Dab = NCC[C@H](N)C(=O)O; Dap = NC[C@H](N)C(=O)O; ξS = NC(CO)C(=O)O

Biological target: T1, PD-1/PD-L1 interaction (PE-labeled human PD-L1-Ig binding to Jurkat cell line over-expressing human PD-1) (Homo sapiens, UniProt Q15116)
T1 construct: expressed in transfected cells; host or cells: Jurkat
T1 sequence (Q15116 25-288): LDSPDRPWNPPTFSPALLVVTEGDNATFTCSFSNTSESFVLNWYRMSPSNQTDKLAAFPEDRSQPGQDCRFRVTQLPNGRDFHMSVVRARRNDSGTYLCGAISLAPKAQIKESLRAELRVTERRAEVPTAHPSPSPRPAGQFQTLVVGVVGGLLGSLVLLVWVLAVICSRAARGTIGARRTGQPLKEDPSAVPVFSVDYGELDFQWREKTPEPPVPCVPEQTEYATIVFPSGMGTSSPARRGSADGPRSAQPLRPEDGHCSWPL
Assay: Jurkat-PD-1 Cell Binding High-Content Screening Assay (CBA)
Type: cell-based
Conditions: Jurkat cell line over-expressing human PD-1; PE-labeled PD-L1-Ig 20 nM final; read-out: Jurkat hPD1-PDL1 IC50
How it was run: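 Human PD-L1-Ig carrying a covalent PE label on its Ig tag serves as the probe, applied at 20 nM final to compound-treated (2 h, 37° C) Jurkat-hPD-1 cells in medium with 10% fetal calf serum. After one hour, fixation and nuclear staining precede high-content image analysis.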

| IC50 | Structure (SMILES) |
| --- | --- |
| 53.4 nM | Cc1cccc(C[C@@H]2NC(=O)[C@H](CC(=O)O)NC(=O)[C@H](Cc3ccc(OCC(=O)O)cc3)NC(=O)[C@H](CN)NC(=O)CSC[C@@H](C(=O)N[C@@H](CCN)C(=O)NCCCCCCCCCCC(=O)O)NC(=O)C(CO)NC(=O)[C@H](C(C)C)NC(=O)[C@H](CC3CCCCC3)NC(=O)[C@H](CCN)NC(=O)[C@@H](CC(C)C)NC(=O)[C@H](CCCN)NC(=O)[C@H](Cc3ccc(O)cc3)NC(=O)[C@H](Cc3ccc(-c4ccccc4)cc3)NC(=O)[C@H](C(C)C)NC2=O)c1 (stereo partly drawn) [Compound 2098] ({CH2CO}-[Dap]Y(Carboxymethyl)D[Phe(3-Me)]V[Bip]Y[Orn][dL][Dab][Cha]V[ξS]C[Dab][Aun]-OH; thioether N-14) |
| 18 nM | Cc1cccc(C[C@@H]2NC(=O)[C@H](CC(=O)O)NC(=O)[C@H](Cc3ccc(OCC(=O)O)cc3)NC(=O)[C@H](CN)NC(=O)CSC[C@@H](C(=O)N[C@@H](CCN)C(=O)NCCCCCCCCCCC(=O)O)NC(=O)[C@H](CCO)NC(=O)[C@H](C(C)C)NC(=O)[C@H](CC3CCCCC3)NC(=O)[C@H](CCN)NC(=O)[C@@H](CC(C)C)NC(=O)[C@H](CCCN)NC(=O)[C@H](Cc3ccc(OCC(=O)O)cc3)NC(=O)[C@H](Cc3ccc(-c4ccccc4)cc3)NC(=O)[C@H](C(C)C)NC2=O)c1 [Compound 2099] ({CH2CO}-[Dap]Y(Carboxymethyl)D[Phe(3-Me)]V[Bip]Y(Carboxymethyl)[Orn][dL][Dab][Cha]V[hSer]C[Dab][Aun]-OH; thioether N-14) |
| 13.9 nM | Cc1cccc(C[C@@H]2NC(=O)[C@H](CC(=O)O)NC(=O)[C@H](Cc3ccc(OCC(=O)O)cc3)NC(=O)[C@H](CN)NC(=O)CSC[C@@H](C(=O)N[C@@H](CCN)C(=O)NCCCCCCCCCCC(=O)O)NC(=O)[C@H](CCO)NC(=O)[C@H](C(C)C)NC(=O)[C@H](CC3CCCCC3)NC(=O)[C@H](CCN)NC(=O)[C@@H](CC(C)C)NC(=O)[C@H](CCCN)NC(=O)[C@H](Cc3ccc(OCC(=O)O)cc3)NC(=O)[C@H](Cc3ccc(-c4ccccc4)cc3)NC(=O)[C@H](Cc3ccc(O)cc3)NC2=O)c1 [Compound 2100] ({CH2CO}-[Dap]Y(Carboxymethyl)D[Phe(3-Me)]Y[Bip]Y(Carboxymethyl)[Orn][dL][Dab][Cha]V[hSer]C[Dab][Aun]-OH; thioether N-14) |
| 16.2 nM | Cc1cccc(C[C@@H]2NC(=O)[C@H](CC(=O)O)NC(=O)[C@H](Cc3ccc(OCC(=O)O)cc3)NC(=O)[C@H](CN)NC(=O)CSC[C@@H](C(=O)N[C@@H](CCN)C(=O)NCCCCCCCCCCC(=O)O)NC(=O)[C@H](CCO)NC(=O)[C@H](C(C)C)NC(=O)[C@H](CC3CCCCC3)NC(=O)[C@H](CCN)NC(=O)[C@@H](CC(C)C)NC(=O)[C@H](CCCN)NC(=O)[C@H](Cc3ccc(OCC(=O)O)cc3)NC(=O)[C@H](Cc3ccc(-c4ccccc4)cc3)NC(=O)[C@H](Cc3ccc(OCC(=O)O)cc3)NC2=O)c1 [Compound 2101] ({CH2CO}-[Dap]Y(Carboxymethyl)D[Phe(3-Me)]Y(Carboxymethyl)[Bip]Y(Carboxymethyl)[Orn][dL][Dab][Cha]V[hSer]C[Dab][Aun]-OH; thioether N-14) |
| 29.1 nM | Cc1cccc(C[C@@H]2NC(=O)[C@H](CC(=O)O)NC(=O)[C@H](Cc3ccc(OCC(=O)O)cc3)NC(=O)[C@H](CN)NC(=O)CSC[C@@H](C(=O)N[C@@H](CCN)C(=O)NCCCCCCCCCCC(=O)O)NC(=O)[C@H](CCO)NC(=O)[C@H](C(C)C)NC(=O)[C@H](CC3CCCCC3)NC(=O)[C@H](CCN)NC(=O)[C@@H](CC(C)C)NC(=O)[C@H](CCCN)NC(=O)[C@H](Cc3ccc(O)cc3)NC(=O)[C@H](Cc3ccc(-c4ccccc4)cc3)NC(=O)[C@H](Cc3ccc(OCC(=O)O)cc3)NC2=O)c1 [Compound 2102] ({CH2CO}-[Dap]Y(Carboxymethyl)D[Phe(3-Me)]Y(Carboxymethyl)[Bip]Y[Orn][dL][Dab][Cha]V[hSer]C[Dab][Aun]-OH; thioether N-14) |
| 69.9 nM | CC(C)C[C@H]1NC(=O)[C@H](CCCN)NC(=O)[C@H](Cc2ccc(O)cc2)NC(=O)[C@H](Cc2ccc(-c3ccccc3)cc2)NC(=O)[C@H](Cc2ccc(O)cc2)NC(=O)[C@H](Cc2ccc(O)c(F)c2)NC(=O)[C@H](CC(=O)O)NC(=O)[C@H](Cc2ccc(OCC(=O)O)cc2)NC(=O)[C@H](CCCNC(=N)N)NC(=O)CSC[C@@H](C(=O)N[C@@H](CCN)C(=O)NCCCCCCCCCCC(=O)O)NC(=O)[C@H]([C@@H](C)O)NC(=O)[C@H](C(C)C)NC(=O)[C@H](CC2CCCCC2)NC(=O)[C@H](CCN)NC1=O [Compound 2103] ({CH2CO}-RY(Carboxymethyl)D[Tyr(3-F)]Y[Bip]Y[Orn][dL][Dab][Cha]VTC[Dab][Aun]-OH; thioether N-14) |
| 22.3 nM | Cc1cc(C[C@@H]2NC(=O)[C@H](CC(=O)O)NC(=O)[C@H](Cc3ccc(OCC(=O)O)cc3)NC(=O)[C@H](CCCNC(=N)N)NC(=O)CSC[C@@H](C(=O)N[C@@H](CCN)C(=O)NCCCCCCCCCCC(=O)O)NC(=O)[C@H]([C@@H](C)O)NC(=O)[C@H](C(C)C)NC(=O)[C@H](CC3CCCCC3)NC(=O)[C@H](CCN)NC(=O)[C@@H](CC(C)C)NC(=O)[C@H](CCCN)NC(=O)[C@H](Cc3ccc(O)cc3)NC(=O)[C@H](Cc3ccc(-c4ccccc4)cc3)NC(=O)[C@H](Cc3ccc(O)cc3)NC2=O)ccc1O [Compound 2104] ({CH2CO}-RY(Carboxymethyl)D[Tyr(3-Me)]Y[Bip]Y[Orn][dL][Dab][Cha]VTC[Dab][Aun]-OH; thioether N-14) |
| 113 nM | CC(C)C[C@H]1NC(=O)[C@H](CCCN)NC(=O)[C@H](Cc2ccc(OCC(=O)O)cc2)NC(=O)[C@H](Cc2ccc(-c3ccccc3)cc2)NC(=O)[C@H](Cc2ccc(O)cc2)NC(=O)[C@H](Cc2ccc(O)c(F)c2)NC(=O)[C@H](CC(=O)O)NC(=O)[C@H](Cc2ccc(OCC(=O)O)cc2)NC(=O)[C@H](CCCNC(=N)N)NC(=O)CSC[C@@H](C(=O)N[C@@H](CCN)C(=O)NCCCCCCCCCCC(=O)O)NC(=O)[C@H]([C@@H](C)O)NC(=O)[C@H](C(C)C)NC(=O)[C@H](CC2CCCCC2)NC(=O)[C@H](CCN)NC1=O [Compound 2105] ({CH2CO}-RY(Carboxymethyl)D[Tyr(3-F)]Y[Bip]Y(Carboxymethyl)[Orn][dL][Dab][Cha]VTC[Dab][Aun]-OH; thioether N-14) |
| 15.9 nM | Cc1cc(C[C@@H]2NC(=O)[C@H](CC(=O)O)NC(=O)[C@H](Cc3ccc(OCC(=O)O)cc3)NC(=O)[C@H](CCCNC(=N)N)NC(=O)CSC[C@@H](C(=O)N[C@@H](CCN)C(=O)NCCCCCCCCCCC(=O)O)NC(=O)[C@H]([C@@H](C)O)NC(=O)[C@H](C(C)C)NC(=O)[C@H](CC3CCCCC3)NC(=O)[C@H](CCN)NC(=O)[C@@H](CC(C)C)NC(=O)[C@H](CCCN)NC(=O)[C@H](Cc3ccc(OCC(=O)O)cc3)NC(=O)[C@H](Cc3ccc(-c4ccccc4)cc3)NC(=O)[C@H](Cc3ccc(O)cc3)NC2=O)ccc1O [Compound 2106] ({CH2CO}-RY(Carboxymethyl)D[Tyr(3-Me)]Y[Bip]Y(Carboxymethyl)[Orn][dL][Dab][Cha]VTC[Dab][Aun]-OH; thioether N-14) |
| 116 nM | CC(C)C[C@H]1NC(=O)[C@H](CCCN)NC(=O)[C@H](Cc2ccc(OCC(=O)O)cc2)NC(=O)[C@H](Cc2ccc(-c3ccccc3)cc2)NC(=O)[C@H](Cc2ccc(O)cc2)NC(=O)[C@H](Cc2ccc(O)c(F)c2)NC(=O)[C@H](CC(=O)O)NC(=O)[C@H](Cc2ccc(OCC(=O)O)cc2)NC(=O)[C@H](CN)NC(=O)CSC[C@@H](C(=O)N[C@@H](CCN)C(=O)NCCCCCCCCCCC(=O)O)NC(=O)[C@H]([C@@H](C)O)NC(=O)[C@H](C(C)C)NC(=O)[C@H](CC2CCCCC2)NC(=O)[C@H](CCN)NC1=O [Compound 2107] ({CH2CO}-[Dap]Y(Carboxymethyl)D[Tyr(3-F)]Y[Bip]Y(Carboxymethyl)[Orn][dL][Dab][Cha]VTC[Dab][Aun]-OH; thioether N-14) |
| 21 nM | Cc1cc(C[C@@H]2NC(=O)[C@H](CC(=O)O)NC(=O)[C@H](Cc3ccc(OCC(=O)O)cc3)NC(=O)[C@H](CN)NC(=O)CSC[C@@H](C(=O)N[C@@H](CCN)C(=O)NCCCCCCCCCCC(=O)O)NC(=O)[C@H]([C@@H](C)O)NC(=O)[C@H](C(C)C)NC(=O)[C@H](CC3CCCCC3)NC(=O)[C@H](CCN)NC(=O)[C@@H](CC(C)C)NC(=O)[C@H](CCCN)NC(=O)[C@H](Cc3ccc(OCC(=O)O)cc3)NC(=O)[C@H](Cc3ccc(-c4ccccc4)cc3)NC(=O)[C@H](Cc3ccc(O)cc3)NC2=O)ccc1O [Compound 2108] ({CH2CO}-[Dap]Y(Carboxymethyl)D[Tyr(3-Me)]Y[Bip]Y(Carboxymethyl)[Orn][dL][Dab][Cha]VTC[Dab][Aun]-OH; thioether N-14) |
| 22.2 nM | Cc1cccc(C[C@@H]2NC(=O)[C@H](CC(=O)O)NC(=O)[C@H](Cc3ccc(OCC(=O)O)cc3)NC(=O)[C@H](CCCNC(=N)N)NC(=O)CSC[C@@H](C(=O)N[C@@H](CCN)C(=O)NCCCCCCCCCCC(=O)O)NC(=O)[C@H]([C@@H](C)O)NC(=O)[C@H](C(C)C)NC(=O)[C@H](CC3CCCCC3)NC(=O)[C@H](CCN)NC(=O)[C@@H](CC(C)C)NC(=O)[C@H](CCCN)NC(=O)[C@H](Cc3ccc(OCC(=O)O)cc3)NC(=O)[C@H](Cc3ccc(-c4ccccc4)cc3)NC(=O)[C@H](C(C)(C)O)NC2=O)c1 [Compound 2109] ({CH2CO}-RY(Carboxymethyl)D[Phe(3-Me)][Val(3-OH)][Bip]Y(Carboxymethyl)[Orn][dL][Dab][Cha]VTC[Dab][Aun]-OH; thioether N-14) |
| 24.1 nM | Cc1cccc(C[C@@H]2NC(=O)[C@H](CC(=O)O)NC(=O)[C@H](Cc3ccc(OCC(=O)O)cc3)NC(=O)[C@H](CCCNC(=N)N)NC(=O)CSC[C@@H](C(=O)N[C@@H](CCN)C(=O)NCCCCCCCCCCC(=O)O)NC(=O)[C@H](CO)NC(=O)[C@H](C(C)C)NC(=O)[C@H](CC3CCCCC3)NC(=O)[C@H](CCN)NC(=O)[C@@H](CC(C)C)NC(=O)[C@H](CCCN)NC(=O)[C@H](Cc3ccc(OCC(=O)O)cc3)NC(=O)[C@H](Cc3ccc(-c4ccccc4)cc3)NC(=O)[C@H](C(C)(C)O)NC2=O)c1 [Compound 2110] ({CH2CO}-RY(Carboxymethyl)D[Phe(3-Me)][Val(3-OH)][Bip]Y(Carboxymethyl)[Orn][dL][Dab][Cha]VSC[Dab][Aun]-OH; thioether N-14) |
